Results as given in PMC10709440, “High-throughput ligand profile characterization in novel cell lines expressing seven heterologous insect olfactory receptors for the detection of volatile plant biomarkers” (Scientific Reports, 2023).
Where two headings read alike, the source gives them in different places.

Assays:
[1] = target: T1, Drosophila OR13a (Drosophila melanogaster, UniProt Q9VXL0); assay: Calcium ion fluorescence (GCaMP6) assay, OR13a stable HEK293 cell line; assay type: cell-based; settings: for OR13a response (VUAA1-normalized) at 1 μM / OR13a response (VUAA1-normalized) at 10 μM / OR13a response (VUAA1-normalized) at 100 μM: OR13a cell line; for OR13a response (VUAA1-normalized) at 1 μM: VOC concentration 1 μM; for OR13a response (VUAA1-normalized) at 10 μM: VOC concentration 10 μM; for OR13a response (VUAA1-normalized) at 100 μM: VOC concentration 100 μM
T1 construct: expressed in transfected cells
T1 sequence (Q9VXL0 1-418): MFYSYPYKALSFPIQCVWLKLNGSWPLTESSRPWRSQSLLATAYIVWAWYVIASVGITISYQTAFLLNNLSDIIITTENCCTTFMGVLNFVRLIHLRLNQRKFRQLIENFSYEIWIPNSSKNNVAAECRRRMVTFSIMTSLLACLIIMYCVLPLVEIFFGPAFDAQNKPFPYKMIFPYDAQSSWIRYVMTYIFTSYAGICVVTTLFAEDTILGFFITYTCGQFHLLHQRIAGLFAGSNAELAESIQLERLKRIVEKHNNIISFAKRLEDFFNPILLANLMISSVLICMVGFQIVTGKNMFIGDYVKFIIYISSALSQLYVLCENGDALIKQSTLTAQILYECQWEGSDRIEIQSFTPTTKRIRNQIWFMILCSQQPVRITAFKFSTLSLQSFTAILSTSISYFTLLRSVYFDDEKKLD
T1 sequence (Q9VNB5 1-486 partner): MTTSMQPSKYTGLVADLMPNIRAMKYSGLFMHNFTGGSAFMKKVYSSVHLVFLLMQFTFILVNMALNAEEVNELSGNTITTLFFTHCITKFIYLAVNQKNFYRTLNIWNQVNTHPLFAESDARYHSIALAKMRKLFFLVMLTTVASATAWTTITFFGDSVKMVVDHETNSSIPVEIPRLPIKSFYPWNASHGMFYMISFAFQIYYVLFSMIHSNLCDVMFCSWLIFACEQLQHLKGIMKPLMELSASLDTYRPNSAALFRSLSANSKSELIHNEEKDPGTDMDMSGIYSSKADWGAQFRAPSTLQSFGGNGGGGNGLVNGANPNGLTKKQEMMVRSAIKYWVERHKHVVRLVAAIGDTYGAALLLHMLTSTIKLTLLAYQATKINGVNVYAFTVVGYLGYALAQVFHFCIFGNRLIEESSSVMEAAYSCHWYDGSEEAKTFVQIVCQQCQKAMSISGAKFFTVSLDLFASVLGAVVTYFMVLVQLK
Experimental: (§1) These VUAA1 normalized ∆F values were used to compare the different receptors and ligands.
(§2) The concentration-dependent effect of the reference ligands on their cognate cell lines was examined in more detail. Twelve different ligand concentrations were measured on each cell line in an overall 0.01 μM to 100 μM concentration range with 5 repetitions with three technical replicates each time.
(§3) Twelve thousand to 18,000 cells were plated into each well of a black wall, transparent bottom 384-well microplate (Greiner) 48 h or 72 h before the measurements and were simultaneously treated with 1 μg/mL doxycycline. […] The plate has 24 columns, thus we could record responses in up to eight different cell lines in each plate. On the day of the experiment, the growth medium was replaced with 20 µL assay buffer/well (140 mM NaCl, 5 mM KCl, 2 mM CaCl2, 1 mM MgCl2, 5 mM HEPES-Na, 20 mM glucose, pH 7.3, 340 mOsm). […] Baseline fluorescence (F0) was recorded for 5 s, after which 7 µL VOC buffer (140 mM NaCl, 5 mM KCl, 2 mM CaCl2, 1 mM MgCl2, 5 mM HEPES-Na, 31 mM glucose, 0.1% DMSO, pH 7.3, 340 mOsm) was injected into each well in one row and the fluorescence response was recorded for an additional 30 s, at a rate of one read/sec. VOC solutions (VOC buffer with 4× concentration of the final measured VOC concentration, 9 µL/well was injected) were measured on the same wells in a second round with the same protocol. Each individual concentration of a specific VOC sample was recorded in three wells for the same cell line on the same microplate. The raw data were exported in xls file format, F0 and FMAX values, and the fluorescence intensity changes (∆F) were calculated in Excel (Microsoft) (Supplementary file Data summary.xlsx) using the following equation: ΔF=FMAX-F0/F0 (see also Fig. 1C). On each plate, we recorded the response of each cell line to 50 µM VUAA1. The average of these ∆F values of each cell line were used to calculate the VUAA1-normalized values for the rest of the plate, by dividing VOC response ∆F values by the average VUAA1 response ∆F value of the corresponding OR cell line. Each VOC-OR combination was measured three times as technical replicates. […] The average of these replicates were used as one ∆F and VUAA1-normalized ∆F in the following analysis.
(§4) In the next rows we tested the reference VOCs (or other VOCs known to activate the corresponding cell lines), in order to test if all cell lines are responsive. The remaining rows were used to test VOCs with unknown effect.
(§5) The recorded FMAX, F0, ∆F, VUAA1-normalized ∆F values, as well as the OR name, the name of the tested sample, and the final concentration for each well were copied into supplementary file Data summary.xlsx, that was used to summarize all the plates recorded. Here, the averages of the measurements were calculated for each receptor-VOC-concentration combination.

[2] = target: T2, Drosophila OR98a (Drosophila melanogaster, UniProt Q9VAZ3); assay: Calcium ion fluorescence (GCaMP6) assay, OR98a stable HEK293 cell line; assay type: cell-based; settings: for OR98a response (VUAA1-normalized) at 1 μM / OR98a response (VUAA1-normalized) at 10 μM / OR98a response (VUAA1-normalized) at 100 μM: OR98a cell line; for OR98a response (VUAA1-normalized) at 1 μM: VOC concentration 1 μM; for OR98a response (VUAA1-normalized) at 10 μM: VOC concentration 10 μM; for OR98a response (VUAA1-normalized) at 100 μM: VOC concentration 100 μM
T2 construct: expressed in transfected cells
T2 sequence (Q9VAZ3 1-397): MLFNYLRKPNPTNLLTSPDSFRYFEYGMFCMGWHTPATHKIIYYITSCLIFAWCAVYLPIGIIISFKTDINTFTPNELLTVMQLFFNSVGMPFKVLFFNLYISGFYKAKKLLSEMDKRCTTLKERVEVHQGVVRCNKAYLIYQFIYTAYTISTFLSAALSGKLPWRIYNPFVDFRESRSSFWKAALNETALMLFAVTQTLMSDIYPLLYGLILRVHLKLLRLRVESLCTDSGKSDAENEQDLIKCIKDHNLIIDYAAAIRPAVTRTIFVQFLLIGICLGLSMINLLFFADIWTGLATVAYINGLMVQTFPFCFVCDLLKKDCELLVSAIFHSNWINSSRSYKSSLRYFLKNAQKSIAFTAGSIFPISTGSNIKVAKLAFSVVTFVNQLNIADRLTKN
T2 sequence (Q9VNB5 1-486 partner): T1 sequence (Q9VNB5 1-486 partner)
Experimental: as §1, §2, §3, §4, §5

[3] = HEK293, read-out: OR13a Average response (VUAA1-normalized), 1 μM VOC, 50 μM VUAA1 = 1, responses not exceeding 0.05 considered 0
[4] = HEK293, read-out: OR13a Average response (VUAA1-normalized), 10 μM VOC, 50 μM VUAA1 = 1, responses not exceeding 0.05 considered 0
[5] = HEK293, read-out: OR13a Average response (VUAA1-normalized), 100 μM VOC, 50 μM VUAA1 = 1, responses not exceeding 0.05 considered 0
[6] = HEK293, read-out: OR13a response (VUAA1-normalized response), VOC concentration 1 μM
[7] = HEK293, read-out: OR13a response (VUAA1-normalized response), VOC concentration 10 μM
[8] = HEK293, read-out: OR13a response (VUAA1-normalized response), VOC concentration 100 μM
[9] = concentration 1, normalized fluorescence change, values below 0.05 threshold given as 0
[10] = concentration 10, normalized fluorescence change, values below 0.05 threshold given as 0
[11] = concentration 100, normalized fluorescence change, values below 0.05 threshold given as 0
[12] = HEK293, read-out: Average response
[13] = HEK293, read-out: OR98a Average response (VUAA1-normalized)
[14] = HEK293, read-out: OR98a response (VUAA1-normalized response)
[15] = ligand concentration 1 (unit not given), 0.05 threshold, values below shown as 0
[16] = ligand concentration 10 (unit not given), 0.05 threshold, values below shown as 0
[17] = ligand concentration 100 (unit not given), 0.05 threshold, values below shown as 0
[18] = ligand concentration 1 (unit not given), threshold 0.05, below shown as 0
[19] = ligand concentration 10 (unit not given), threshold 0.05, below shown as 0
[20] = ligand concentration 100 (unit not given), threshold 0.05, below shown as 0

| Compound | activation at 1 µM [1, 3] | activation at 10 µM [1, 4] | activation at 100 µM [1, 5] | activation at 1 µM [1, 6] | activation at 10 µM [1, 7] | activation at 100 µM [1, 8] | DF norm AVERAGE OR13a [1, 9] | DF norm AVERAGE OR13a [1, 10] | DF norm AVERAGE OR13a [1, 11] | activation at 1 µM [2, 12] | activation at 10 µM [2, 12] | activation at 100 µM [2, 12] | activation at 1 µM [2, 14] | activation at 10 µM [2, 14] | activation at 100 µM [2, 14] | DF norm AVERAGE OR98a [2, 9] | DF norm AVERAGE OR98a [2, 10] | DF norm AVERAGE OR98a [2, 11] | OR13a response (VUAA1-normalized) at 1 μM [1] | OR13a response (VUAA1-normalized) at 10 μM [1] | further results |
| --- | --- | --- | --- | --- | --- | --- | --- | --- | --- | --- | --- | --- | --- | --- | --- | --- | --- | --- | --- | --- | --- |
| CCCCC(C)O (stereo not drawn) [2-hexanol] | 0% | 0% | 5% | 0% | 0% | 0% | 0 | 0 | 0 | 0% | 0% | 14% | 0% | 0% | 14% | 0 | 0 | 0.1401 | – | – | activation at 1 µM [2, 13]: 0%; activation at 10 µM [2, 13]: 0%; activation at 100 µM [2, 13]: 14% |
| CC1=CCC23CC1C(C)(C)C2CCC3C (stereo not drawn) [α-funebrene] | 0% | 0% | 0% | – | – | – | – | – | – | 0% | 9% | 5% | – | – | – | – | – | – | 0.00 | 0.00 | OR13a response (VUAA1-normalized) at 100 μM [1]: 0.00; DF norm AVERAGE OR13a [1, 15]: 0; DF norm AVERAGE OR13a [1, 16]: 0; DF norm AVERAGE OR13a [1, 17]: 0; OR98a response (VUAA1-normalized) at 1 μM [2]: 0.00; OR98a response (VUAA1-normalized) at 10 μM [2]: 0.09; OR98a response (VUAA1-normalized) at 100 μM [2]: 0.05; DF norm AVERAGE OR98a [2, 15]: 0; DF norm AVERAGE OR98a [2, 16]: 0.08582; DF norm AVERAGE OR98a [2, 17]: 0.05199 |
| O=Cc1ccccc1 [benzaldehyde] | 0% | 8% | 5% | 0% | 8% | 0% | – | – | – | 0% | 0% | 4.43% | 0% | 0% | 0% | – | – | – | – | – | DF norm AVERAGE OR13a [1, 18]: 0; DF norm AVERAGE OR13a [1, 19]: 0.07623; DF norm AVERAGE OR13a [1, 20]: 0; DF norm AVERAGE OR98a [2, 18]: 0; DF norm AVERAGE OR98a [2, 19]: 0; DF norm AVERAGE OR98a [2, 20]: 0 |
| Cc1ccc(O)cc1 [4-methylphenol] | 4.62% | 2% | 1.38% | 0% | 0% | 0% | 0 | 0 | 0 | 0% | 2% | 2.76% | 0% | 0% | 0% | 0 | 0 | 0 | – | – | – |
| COC(=O)c1ccccc1O [methyl salicylate] | 0% | 1% | 21% | – | – | – | – | – | – | 3% | 1.79% | 4% | – | – | – | – | – | – | 0.00 | 0.00 | OR13a response (VUAA1-normalized) at 100 μM [1]: 0.21; DF norm AVERAGE OR13a [1, 18]: 0; DF norm AVERAGE OR13a [1, 19]: 0; DF norm AVERAGE OR13a [1, 20]: 0.213; OR98a response (VUAA1-normalized) at 1 μM [2]: 0.00; OR98a response (VUAA1-normalized) at 10 μM [2]: 0.00; OR98a response (VUAA1-normalized) at 100 μM [2]: 0.00; DF norm AVERAGE OR98a [2, 18]: 0; DF norm AVERAGE OR98a [2, 19]: 0; DF norm AVERAGE OR98a [2, 20]: 0 |
